In assay [1] the test system is NIH-3T3 mouse embryonic fibroblast cells. Kind of assay: IL-6 secretion by NIH-3T3 fibroblasts (Elisa). The class given is cell-based. As to conditions: NIH-3T3 cells, 50 ng/ml, vs control / IL-17 group. The procedure:
FIG. 2: NIH-3T3 mouse embryonic fibroblast cells were treated with IL-17 vehicle (Ctrl), IL-17 (50 ng/ml) alone (IL-17) or peptide (FM-0410) (50 ng/ml) and supernatants were assayed by Elisa for IL-6. Data were expressed as pg/ml and presented as means±S.D. of three separate independent experiments. Statistical analysis was conducted by one-way ANOVA followed by Bonferroni's for multiple comparisons. ^##P≤0.01, ^###P≤0.005 vs Ctrl group; *P≤0.05 vs IL-17 group. In order to assess the biological activity of synthesized peptide, we carried out in vitro studies using NIH-3T3 mouse embryonic fibroblast cells. […] With this in vitro system we measured IL-17 activity by its ability to induce IL-6 secretion by NIH-3T3 mouse embryonic fibroblast cells. Methods: The levels of IL-6 in the cellular and air pouch inflammatory supernatants at 24 h were measured using commercially available enzyme-linked immunosorbent assay kit (ELISA kit, R&D System, Milan, Italy) according to the manufacturer instructions. […] The addition of 100 μl of the substrate and stop solution represented the last steps before the reading of absorbance (measured at 450 nm) on a microplate reader. Antigen levels in the samples were determined using a standard curve and expressed as pg/ml. […]

Assay [2] deals with Human dermal blood endothelial cells (HDBEC). Put plainly: HDBEC stimulation (flow cytometry, IL-6 Elisa). It is filed as cell-based. As to conditions: 24 h. The procedure:
FIG. 10: Human dermal blood endothelial cells (HDBEC) were treated with: IL-17 vehicle (Ctrl), IL-17 or FM-0410 (100 ng/ml), alone or in combination with TNF-α (100 U/ml) for 24 h. Cells were washed, gated in their totality and singlet before the identification of IL-17Rs (RA and RC) (A, B), ICAM (C) and VCAM (D) expression. Histogram values (expressed as MIF) indicate the total positive cells (A-D). In (E) are shown phase-contrast micrographs of confluent monolayers of untreated or treated (as reported before) HDBEC. Total adhesion (expressed as INT/mm^2, F) and % of transmigration (G) are calculated with Image Pro programme (DataCell, Finchampstead). Inflammatory supernatants from all experimental conditions were assayed by Elisa for IL-6 (H) expressed in pg/ml. Data were presented as means±S.D. of n=3 healthy donors. Statistical analysis was conducted by one-way ANOVA followed by Bonferroni's for multiple comparisons. ^#P≤0.05, ^##P≤0.01, ^###P≤0.001, ^####P≤0.0001 vs Ctrl group; *P≤0.05 vs TNF-α+IL-17 group; ^∘P≤0.05, ^∘∘∘P≤0.001, ^∘∘∘∘P≤0.0001 vs TNF-α group.
Human dermal blood endothelial cells (HDBEC): Primary human dermal blood endothelial cells (HDBECs) were purchased from PromoCell and cultured in the manufacturer's recommended endothelial cell growth medium MV (PromoCell, Heidelberg, Germany). HDBECs were seeded onto 12-well tissue culture plates after 4 passages at a seeding density yielding confluent monolayers. HDBEC monolayers were washed in endothelial cell growth medium MV warmed to 37° C. and stimulated with IL-17 or FM-0410 (100 ng/ml) alone or in a combination with TNF-α (100 U/ml) for 24 h at 37° C. Cells were stimulated for 24 h, before staining with IL-17Rs (RA or RC) or ICAM/VCAM adhesion receptors using a Flow cytometry assay. Supernatants were collected and measured to evaluate IL-6 or TNF-α levels.
Flow Cytometry: HDBEC, collected after 24 h of treatment, were washed with PBS without Ca^2+ and Mg^2+ containing 25 mM lactose for 20 min at room temperature with occasional mixing. Cells were, then, incubated with FcR blocking agents (Miltenyi) in PBS without Ca^2+ and Mg^2+ containing lactose before staining cells with antibodies IL-17 Receptor A (1:100; clone 133617) and IL-17 Receptor C (1:100; clone 309822). Moreover, HDBEC cells were also stained with ICAM (BBIG-V3; 1:50, APC, BD Biosciences) and VCAM (3E2; 1:50, FITC, BD Biosciences). Protein expression was analysed by flow cytometry on a Dako CyAn (Beckman Coulter, High Wycombe, U.K.), and data were analysed using MRFIow and FlowJo software operation. The unspecific binding of antibodies was quantified by using corresponding isotype controls.
Elisa assay: The levels of IL-6 at 24 h were measured using commercially available enzyme-linked immunosorbent assay kits (ELISA kit, R&D System, Milan, Italy) according to the manufacturer's instructions. Briefly, 100 μl of supernatants, diluted standards, quality controls, and dilution buffer (blank) were applied on a plate with the monoclonal antibody for 2 h. After washing, 100 μl of biotin-labeled antibody was added and incubation continued for 1 h. […] The addition of 100 μl of the substrate and stop solution represented the last steps before the reading of absorbance (measured at 450 nm) on a microplate reader. Antigen levels in the samples were determined using a standard curve and expressed as pg/ml.
For orientation: A flow cytometer gives signals particle by particle.

Where [3] appears, read: 100 ng/ml in combination with TNF-α (100 U/ml).

Here are results for one substance from US20260035452A1 (THE UNIVERSITY OF BIRMINGHAM, priority 2022, published 2026).

No end group written: not given here.

Take Ac-LEKILVSVGATAVTPIVHHVAC [FM-0410]: the IL-6 release result in assay [1] is “significant, and more abundant, release of IL-6 compared to IL-17-treated group”. Besides, in assay [2] (setting [3]), the ICAM expression result is recorded as “upregulation”, the IL-17RA receptor expression entry was “No effects”, the IL-17RC receptor expression entry is given as “No effects” and the VCAM expression entry is on record as “upregulation”. Moreover, the “IL-6 levels (marker of cell activation)” value in assay [2] (peptide co-stimulation with TNF-α) is “upregulation”.
